Assay results from ChEMBL document CHEMBL6078614, “Privileged small molecules against neglected tropical diseases: A perspective from structure activity relationships” (Eur J Med Chem, 2024).
In brackets after ≈: the same amount, converted by molar mass.

Assays:
Phosphodiesterase 4 = Phosphodiesterase 4 (Homo sapiens, UniProt P27815+Q08499+Q07343+Q08493); assay: Inhibition of PDE4 (unknown origin); type: protein assay
Leishmania braziliensis = assay: Antileishmanial activity against Leishmania braziliensis; type: functional, organism-based
Trypanosoma cruzi [1] = assay: Antiprotozoal activity against Trypanosoma cruzi epimastigotes assessed as reduction in parasite growth; type: functional, organism-based
Entamoeba histolytica = assay: Antiparasitic activity against Entamoeba histolytica; type: functional, organism-based
Trypanosoma cruzi [2] = assay: Antitrypanosomal activity against Trypanosoma cruzi Tulahuen amastigotes; type: functional, organism-based
Leishmania major [3] = assay: Antileishmanial activity against Leishmania major; type: functional, organism-based
Leishmania amazonensis = assay: Antileishmanial activity against Leishmania amazonensis amastigotes assessed as parasite growth inhibition; type: functional, organism-based
Leishmania major [4] = assay: Antileishmanial activity against Leishmania major amastigotes assessed as inhibition of parasite growth incubated for 48 hrs by alamar blue reagent based ELISA; type: functional, organism-based
Trypanosoma cruzi [5] = assay: Antitrypanosomal activity against trypomastigote form of Trypanosoma cruzi Y assessed as inhibition of parasite viability; type: functional, organism-based
Leishmania chagasi = assay: Antileishmanial activity against Leishmania chagasi; type: functional, organism-based
Leishmania donovani [6] = assay: Antileishmanial activity against Leishmania donovani promastigotes measured after 48 hrs by MTT assay; type: functional, organism-based
Leishmania infantum = assay: Inhibition of Leishmania infantum Arginase expressed in Escherichia coli BL21 (DE3) at 50 uM by enzymatic assay relative to control
Trypanosoma brucei = assay: Antitrypanosomal activity against Trypanosoma brucei; type: functional, organism-based
Leishmania mexicana [7] = assay: Antileishmanial activity against Leishmania mexicana promastigotes
Leishmania mexicana [8] = assay: Antileishmanial activity against Leishmania mexicana promastigotes assessed as reduction in parasite growth by alamar-blue staining based analysis; type: functional, organism-based
Leishmania major [9] = assay: Antileishmanial activity against Leishmania major promastigotes assessed as inhibition of parasite growth; type: functional, organism-based
Leishmania major [10] = assay: Antileishmanial activity against Leishmania major promastigotes assessed as inhibition of parasite growth incubated for 48 hrs by resazurin dye based assay; type: functional, organism-based
L929 = assay: Cytotoxicity against mouse L929 cells assessed as reduction in cell viability; type: functional
Trypanosoma cruzi [11] = assay: Antitrypanosomal activity against trypomastigote form of Trypanosoma cruzi Y assessed as inhibition of parasite viability incubated for 24 hrs by light microscopy; type: functional, organism-based
[12] = test system: Trypanosoma brucei rhodesiense; assay: Antitrypanosomal activity against Trypanosoma brucei rhodesiense; type: functional, organism-based
Leishmania major [13] = assay: Antileishmanial activity against Leishmania major IR-173 promastigotes assessed as inhibition of parasite growth incubated for 24 hrs by resazurin dye based assay; type: functional, organism-based; conditions: IR-173, 24 h
Leishmania major [14] = assay: Antileishmanial activity against Leishmania major IR-173 promastigotes assessed as inhibition of parasite growth incubated for 48 hrs by resazurin dye based assay; type: functional, organism-based; conditions: IR-173, 48 h
[15] = Inhibition of Entamoeba histolytica O-acetylserine sulfhydrylase
Leishmania donovani [16] = assay: Antileishmanial activity against amastigote form of Leishmania donovani infected in BALB/c mouse assessed as inhibition of parasite growth in spleen at 25 mg/kg, po measured after 5 days by geimsa staining based analysis relative to control; type: functional; parameters: scale not given: the % may be the effect or the level left; conditions: time 5 day
Leishmania donovani [17] = assay: Antileishmanial activity against Leishmania donovani amastigotes infected in J774 macrophage assessed as inhibition of parasite growth incubated for 48 hrs by luciferase assay; type: functional, organism-based; conditions: J774, 48 h
HepG2 = assay: Cytotoxicity against human HepG2 cells assessed as reduction in cell viability by MTT assay; type: functional
HeLa = assay: Cytotoxicity against human HeLa cells assessed as reduction in cell viability incubated for 24 hrs by MTT assay; type: functional

COc1ccc(C2=NN(C(C)C)C(=O)C2(C)C)cc1-c1ccncc1
pIC50 (Phosphodiesterase 4): 5.8

NNc1nc(-c2ccc(F)cc2)nc2ccccc12
IC50 (Leishmania braziliensis): 7.41 µM

Cc1ccc(N2Cc3cc(NC(=O)N4CCN(c5cccc(C(F)(F)F)c5)CC4)ccc3C2=O)cc1
IC50 (Trypanosoma cruzi [1]): 0.04 µM

Cc1ncc([N+](=O)[O-])n1CCOC(=O)NC1CCCCC1
IC50 (Entamoeba histolytica): 0.46 µM

NC(=O)Nc1cc2nc(-c3cccc(C(F)(F)F)c3)cn2cn1
EC50 (Trypanosoma cruzi [2]): > 20 µM

O=[N+]([O-])c1ccc(-c2nnc(N3CCC(O)CC3)s2)o1
IC50 (Leishmania major [3]): 68.9 µM

O=C1c2ccccc2C(=O)N1CCn1cc(-c2ccccc2)nn1
IC50 (Leishmania amazonensis): 125 µM

COc1ccc2cc([C@H](C)C(=O)O)ccc2c1 [NAPROXEN]
IC50 (Entamoeba histolytica): 0.14 µM

CC(C)Cc1ccc(C(C)C(=O)O)cc1 (centres undefined) [IBUPROFEN]
IC50 (Entamoeba histolytica): 0.172 µM

CCc1ccc(-n2cc(CCN3CCN(C(=O)c4c(C)nc5cc(C)ccn45)CC3)nn2)cc1
IC50 (Leishmania major [4]): 15.1 µM

O=C(Nc1cc2nc(-c3cccc(C(F)(F)F)c3)cn2cn1)N1CC[C@H](F)C1
EC50 (Trypanosoma cruzi [2]): 0.08 µM

CN1C(=N)N/C(=C/c2c[nH]c3cc(Br)ccc23)C1=O
IC50 (Trypanosoma cruzi [5]): 62 µM

CC(C)c1ccc(S(=O)(=O)/N=N/Cc2ccc([N+](=O)[O-])o2)cc1
IC50 (Leishmania major [4]): 4.71 µM

c1cncc(Nc2nccc(-c3cnn4ncccc34)n2)c1
EC50 (Trypanosoma cruzi [2]): 7.7 µM

N/C(S)=N/N=C/c1cccc(Cl)c1Cl
IC50 (Leishmania chagasi): 2.2 µM

N=C(N)N/N=C/c1cccc(Cl)c1Cl
IC50 (Leishmania chagasi): 7.27 µM

O=C(O)Cc1ccccc1Nc1c(Cl)cccc1Cl [DICLOFENAC]
IC50 (Entamoeba histolytica): 0.22 µM

COc1ccc(C2=NN(C(C)C)C(=O)C2(C)C)cc1OCc1ccccc1
pIC50 (Phosphodiesterase 4): 6.8

CC(C)(Oc1ccc(Cl)cc1)C(=O)O [CLOFIBRIC ACID]
IC50 (Entamoeba histolytica): 0.145 µM

Cc1cccnc1-n1cccc1C(=O)c1ccc(F)cc1
IC50 (Leishmania donovani [6]): 7.78 µM
IC50 (Leishmania amazonensis): 16.9 µM

O=[N+]([O-])c1ccc(-c2nnc(N3CCC(O)CC3)s2)s1
IC50 (Leishmania major [3]): 27 µM

COc1cccc(-c2nc3sccn3c2-c2ccnc(NCCNC(=O)Nc3cccc(C(F)(F)F)c3)n2)c1
IC50 (Leishmania chagasi): 30 µM
inhibition (Leishmania infantum): 69.2%

NCCCC(N)(C(=O)O)C(F)F (centres undefined) [EFLORNITHINE]
EC50 (Trypanosoma brucei): 13 µM

CC1CS(=O)(=O)CCN1/N=C/c1ccc([N+](=O)[O-])o1 (centres undefined) [NIFURTIMOX]
IC50 (Leishmania mexicana [7]): 9.32 µM

O=[N+]([O-])c1ccc(-c2nnc(NCCCO)s2)o1
IC50 (Leishmania major [3]): 18 µM

c1ccc(-c2cnc3c(n2)CCCC3)cc1
IC50 (Leishmania mexicana [8]): 39.8 µM

NNS(=O)(=O)c1ccc([N+](=O)[O-])o1
IC50 (Leishmania major [4]): 5.75 µM
IC50 (Leishmania major [9]): 1.85 µM

C[C@@H]1[C@H](O)[C@@H](C)/C=C/C=C/C=C/C=C/C=C/C=C/C=C/[C@H](O[C@@H]2O[C@H](C)[C@@H](O)[C@H](N)[C@@H]2O)C[C@@H]2O[C@](O)(C[C@@H](O)C[C@@H](O)[C@H](O)CC[C@@H](O)C[C@@H](O)CC(=O)O[C@H]1C)C[C@H](O)[C@H]2C(=O)O [AMPHOTERICIN B]
IC50 (Leishmania major [10]): 0.19 µg/mL (≈ 0.206 µM)

Cn1c(/C=C/C(=O)NO)ccc1/C=C/C(=O)c1cccc(Cl)c1
CC50 (L929): 40 µM
EC50 (Trypanosoma cruzi [11]): 7 µM

Brc1ccc(-n2cc(C3=NCCS3)cn2)cc1
IC50 (Trypanosoma cruzi [5]): 2.1 µM

Clc1ccc(-n2cc(C3=NCCS3)cn2)cc1Cl
IC50 (Trypanosoma cruzi [5]): 1.9 µM

COc1ccc2nc(-c3ccccc3)cnc2c1
IC50 (Leishmania mexicana [8]): 50.9 µM

COc1cc(/C=C/C(=O)CC(=O)/C=C/c2ccc(O)c(OC)c2)ccc1O [CURCUMIN]
EC50 [12]: 4.85 µM

Cc1sc(NC(=S)NC(=O)c2cccc(Cl)c2)nc1-c1ccccc1
IC50 (Leishmania major [3]): 38.5 µg/mL

c1ccc(-c2cnc3ccccc3n2)cc1
IC50 (Leishmania mexicana [8]): 12.5 µM

Cc1ccc(C(=O)NC(=S)NCc2ccco2)cc1
IC50 (Leishmania major [3]): 38.5 µg/mL

O=C(Nc1ccc2c(c1)CN(c1ccc(Br)cc1)C2=O)N1CCN(c2ccc(F)cc2)CC1
IC50 (Trypanosoma cruzi [1]): 0.05 µM

COc1ccc2c(c1)c(CC(=O)O)c(C)n2C(=O)c1ccc(Cl)cc1 [INDOMETHACIN]
IC50 (Entamoeba histolytica): 0.22 µM

N=C(S)N/N=C/c1ccc(C(F)(F)F)cc1
IC50 (Leishmania chagasi): 3.2 µM

O=C(Cn1ccnc1[N+](=O)[O-])NCc1ccccc1 [BENZNIDAZOLE]
EC50 (Trypanosoma brucei): 1.94 µM

COc1ccc(C2=NN(C(C)C)C(=O)C2(C)C)cc1-c1cccnc1
pIC50 (Phosphodiesterase 4): 6.4

CCCCCCCCCc1cn(CCN2CCN(C(=O)c3c(C)nc4cc(C)ccn34)CC2)nn1
IC50 (Leishmania major [4]): 15.1 µM

Cn1ccnc1-c1nnc(-c2ccc([N+](=O)[O-])s2)s1
IC50 (Leishmania major [13]): 11.2 µg/mL (≈ 38.2 µM)
IC50 (Leishmania major [14]): 7.1 µg/mL (≈ 24.2 µM)

O=[N+]([O-])c1ccc2nc([S+]([O-])Cc3ccccn3)[nH]c2c1 (centres undefined)
IC50 ([15]; read-out: IC50): 11 µM

CC(C)(C)Nc1c(-c2cc3ccccc3n3nnnc23)nc2sc(C#N)cn12
IC50 [15]: 140 µg/mL

O=C(Cn1nnc2ccccc21)NNCc1ccccc1Cl
Activity (Leishmania donovani [16]): 89.4%

O=C(NCCNc1nccc(-c2c(-c3cccc(O)c3)nc3sccn23)n1)c1ccc(N2CCOCC2)c(C(F)(F)F)c1
IC50 (Leishmania chagasi): 32.4 µM
inhibition (Leishmania infantum): 67%

Cc1nc(C)c(C(=O)Nc2ccc(F)c(-c3nc4ncc(-c5ccccc5Cl)cn4n3)c2)o1
EC50 (Trypanosoma cruzi [2]): 0.02 µM

COc1ccc(/C=N/NC(N)=S)cc1
IC50 (Leishmania chagasi): 1.6 µM

Cc1ccn2c(C(=O)N3CCN(CCn4cc(-c5ccc(C(C)(C)C)cc5)nn4)CC3)c(C)nc2c1
IC50 (Leishmania major [4]): 15.1 µM

CCCCCCCCCCCCCCCCOP(=O)([O-])OCC[N+](C)(C)C [MILTEFOSINE]
Activity (Leishmania donovani [16]): >98%

O=[N+]([O-])c1c(CS(=O)(=O)c2ccccc2)nc2c(Sc3ccc(Cl)cc3)cc(Cl)cn12
IC50 (Leishmania donovani [17]): 1.3 µM
CC50 (HepG2): > 100 µM

Cc1ccn2c(C(=O)N3CCN(CCc4cn(-c5cccc(Cl)c5)nn4)CC3)c(C)nc2c1
IC50 (Leishmania major [4]): 15.1 µM
CC50 (HeLa): 62.7 µM

N=C(N)N/N=C/c1ccc2ccccc2n1
IC50 (Leishmania chagasi): 0.6 µM

O=C(Nc1cc2nc(-c3ccc(F)c(F)c3)cn2cn1)N1CC[C@H](F)C1
EC50 (Trypanosoma cruzi [2]): 0.73 µM

O=C(Nc1nc2cc(Cl)ccc2o1)C(c1ccccc1)c1ccccc1
IC50 (Leishmania donovani [17]): 9.1 µM

O=c1[nH]c2cc(Cl)c(Cl)cc2c(=O)n1-c1ccccc1
IC50 (Leishmania mexicana [8]): 6.05 µM

COC(=O)c1nc(NC(=O)c2cc(NC(=O)c3nc(NC(=O)OC(C)(C)C)sc3C(C)C)cn2C)sc1C(C)C
EC50 [12]: 11.8 µM

COc1ccc(C(=O)NC(=S)Nc2nc(-c3ccccc3)c(C)s2)cc1
IC50 (Leishmania major [3]): 38.5 µg/mL

Clc1ccc(-n2cc(C3=NCCS3)cn2)c(Cl)c1
IC50 (Trypanosoma cruzi [5]): 0.4 µM

N=C(N)N/N=C/c1ccccc1-c1ccccc1
IC50 (Leishmania chagasi): 4.97 µM

NNc1nc(-c2ccccc2Cl)nc2ccccc12
IC50 (Leishmania braziliensis): 8.43 µM

Cc1ccn2c(C(=O)N3CCN(CCc4cn(-c5ccc(Br)cc5)nn4)CC3)c(C)nc2c1
IC50 (Leishmania major [4]): 15.1 µM

CN1CCN(c2nn3c(-c4cccc([N+](=O)[O-])c4)nnc3c3ccccc23)CC1
IC50 (Leishmania braziliensis): 9.37 µM

Cc1c(OCC(F)(F)F)ccnc1C[S+]([O-])c1nc2ccc([N+](=O)[O-])cc2[nH]1 (centres undefined)
IC50 ([15]; read-out: IC50): 15 µM

COc1ccc2c(-c3ccnc(Nc4cccc(C#N)c4)n3)c(CO)nn2n1
EC50 (Trypanosoma cruzi [2]): 7.2 µM
